Format in all cases: in vivo, rat
Assay [1] relates to rats with ligature-induced experimental periodontitis (EPD). The assay is described as follows: Alveolar bone volume in EPD rats, 14 natural substance extracts. The following applies: extract 200 mg/kg (IND 5 mg/kg) oral once a day for 10 days, FIG. 2. As to the method:
(§1) The gingivitis- and periodontitis-improving effect was evaluated using rats with ligature-induced experimental periodontitis (EPD). 24 hours after the ligature of the cervical portion, each extract dissolved in sterilized distilled water was orally administered at a dosage of 5 mL/kg (200 mg/kg) once a day for 10 days and the change in the amount of interleukin (IL)-1β in the gingival tissue and the alveolar bone volume was observed along with histopathological changes. A group to which 5 mg/kg indomethacin (IND), which is a nonsteroidal anti-inflammatory drug (NSAID), was orally administered was used as a control group.
Each of the concentrated pomegranate powder and the 13 extracts containing moringa leaf (balloon flower root, gardeniae fructus, scutellariae radix, moringa, lotus leaf, Chinese mulberry leaf, ginger, peony root, achyranthis radix, eucommia bark, red clover, dandelion and dandelion root) was dissolved in sterilized distilled water to a concentration of 40 mg/mL and orally administered at a dosage of 5 mL/kg (200 mg/kg) from 24 hours after the ligature of the cervical portion once a day for 10 days. […]
Alveolar bone loss was measured according to the method of Crawford et al. [1987]. […] The area between the end of the gingiva and the end of the incisor between the two teeth subjected to EPD was expressed as mm/rat.

In assay [2] the test system is osteoclasts in alveolar bone. Description: Number of osteoclasts in alveolar bone of EPD rats (TRAP staining). Conditions: dosage of 200 mg/kg oral once a day for 10 days, FIG. 7. As to the method:
The gingivitis- and periodontitis-improving effect was evaluated using rats with ligature-induced experimental periodontitis (EPD). 9 complex compositions of the moringa leaf extract (MF) and the eucommia bark extract (EC) (MF:EC=1:1, 1:2, 1:4, 1:6, 1:8, 2:1, 4:1, 6:1 and 8:1; mg:mg) dissolved in sterilized distilled water were orally administered at a dosage of 5 mL/kg (200 mg/kg) once a day for 10 days and body weight, alveolar bone, number of viable aerobic bacteria in the oral tissue, interleukin (IL)-1β and tumor necrosis factor (TNF)-α contents in the gingiva, lipid peroxidation (malondialdehyde (MDA) content) and change in the activity of inducible nitric oxide synthase (iNOS) and myeloperoxidase (MPO) were observed together with histopathological changes. […] A group to which 5 mg/kg indomethacin (IND), which is a nonsteroidal anti-inflammatory drug (NSAID), was orally administered was used as a control group. […]
The number of osteoclasts was determined by staining with TRAP and counting the number of TRAP-positive multinucleated cells. […] The number of TRAP-positive multinucleated osteoclasts (having 3 or more nuclei) formed on the surface of the alveolar bone was counted using an optical microscope.

For assay [3], the system named is interleukin (IL)-1β in the gingival tissue. Description: IL-1β content in gingival tissue of EPD rats, 14 natural substance extracts. The following applies: extract 200 mg/kg (IND 5 mg/kg) oral once a day for 10 days, FIG. 1. As to the method:
as §1, with “group. […]” for “group.”
After EPD for 11 days, the gingival tissue was homogenized and subjected to measurement with the IL-1β rat ELISA kit (Abcam, Cambridge, UK). […] After adding 50 μL of a stop solution to each well, absorbance was measured with a microplate reader (Tecan, Mannedofr, Switzerland) at a wavelength of 450 nm.

For the compound `COc1ccc2c(c1)c(CC(=O)O)c(C)n2C(=O)c1ccc(Cl)cc1` [IND, indomethacin], in assay [1], the “change in alveolar bone volume as compared to the EPD control group” value was “significantly increase (p<0.01 or p<0.05)”. The “change in the number of osteoclasts as compared to the EPD control group” value in assay [2] was −50.19%. Also, the “change in IL-1β content in the gingival tissue as compared to the EPD control group” value in assay [3] was “significantly decrease (p<0.01)”.

The values above are taken from US20180271925A1, “Method For Improving Gingivitis And Periodontitis By Antibacterial, Antioxidant And Anti-Inflammatory Effects And Inhibition Of Alveolar Bone Loss Of Complex Extracts Of Moringa Leaf And Eucommia Bark” (HLSCIENCE CO., LTD., priority 2017, published 2018).
